Drawing on US9078874B2, “Composition and method for treating cognitive impairments in down syndrom subjects” (Centre National De La Recherche Scientifique—CNRS, priority 2009, dated 2015), this text covers Convulsant mice rate for 1 compound.

Data set [1] deals with euploid and Ts65Dn mice. The data set can be described thus: Convulsant effects after a single intraperitoneal injection. The note with it: 50 mg/kg i.p., observed 20 min. Type of data set: in vivo. The protocol: The convulsant action of the α5IA or beta CCM was evaluated after a single intraperitoneal injection of 50 or 3 mg/Kg of α5IA or beta CCM, respectively. The 50 mg/Kg dose of α5IA corresponded to 10 times the dose with promnesiant effects and 10 times the active dose in the object recognition test (5 mg/Kg)
(§1) The proconvulsant action of the α5IA was measured after injection of a subconvulsive dose of pentylenetetrazole. Mice were injected with either vehicle or the α5IA (50 mg/kg i.p) and 20 min later they received an intraperitoneal injection of 45 mg/kg of pentylenetetrazole. […] Six to 7 mice were used for each condition. The latency to the first myoclonic jerk episode and the convulsion grade were recorded during a 1200-s period of observation. Four grades were empirically determined: Grade 0: no effect; grade 1: tail up and curved; grade 2: reversed tail and convulsive shivers; grade 3: myoclonic convulsions.
(§2) We then tested the proconvulsant effect of α5IA by injecting it (50 mg/kg) 20 min before a sub-convulsant dose of pentylenetetrazol (45 mg/kg) that induces myoclonic convulsions in about 50% of mice.

Data set [2] concerns euploid and Ts65Dn mice. The experiment in a line: Pro-convulsant effects after pentylenetetrazol (45 mg/kg). It counts as in vivo. The note with it: mouse, in vivo, 50 min. The procedure: For testing the pro-convulsant effects of α5IA, a sub-convulsant dose of pentylenetetrazole (45 mg/kg i.p.) that induces myoclonic convulsions in about 50% of mice was injected i.p. 20 min after injection of α5IA (50 mg/kg) or placebo.
as §1, §2

With `Cc1cc(-c2nnc3c4ccccc4c(OCc4cn(C)nn4)nn23)no1` [α5IA, 3-(5-methylisoxazol-3-yl)-6-[(1-methyl-1,2,3-triazol-4-yl)methyloxy]-1,2,4-triazolo[3,4-a]phthalazine], the Convulsant mice rate in data set [1] (Euploids) is given as 0/6; in data set [1] (Ts65Dn), 0/7; in data set [2] (Ts65Dn) it was 4/7; in data set [2] (euploid), 3/6.
